Test results as given in patent publication US20170347651A1, “ACTIVE COMPOUND COMBINATIONS COMPRISING A (THIO)CARBOXAMIDE DERIVATIVE AND FUNGICIDAL COMPOUND(S)” (Bayer CropScience Aktiengesellschaft, priority 2014, published 2017).

Assays:
Pyrenophora teres = assay: in vivo preventive Pyrenophora teres test (barley); conditions: 8 days after inoculation
Description: (§1) To produce a suitable preparation of active compound, 1 part by weight of active compound or active compound combination is mixed with the stated amounts of solvent and emulsifier, and the concentrate is diluted with water to the desired concentration.
(§2) To test for preventive activity, young plants are sprayed with the preparation of active compound or active compound combination at the stated rate of application. After the spray coating has been dried, the plants are sprayed with a spore suspension of Pyrenophora teres. The plants remain for 48 hours in an incubation cabinet at approximately 20° C. and a relative atmospheric humidity of approximately 100%. The plants are placed in the greenhouse at a temperature of approximately 20° C. and a relative atmospheric humidity of approximately 80%.
(§3) The test is evaluated 8 days after the inoculation. 0% means an efficacy which corresponds to that of the untreated control, while an efficacy of 100% means that no disease is observed.

Septoria tritici = assay: in vivo preventive Septoria tritici test (wheat); conditions: 21 days after inoculation
Description: as §1
To test for preventive activity, young plants are sprayed with the preparation of active compound or active compound combination at the stated rate of application.
After the spray coating has been dried, the plants are sprayed with a spore suspension of Septoria tritici.
The plants remain for 48 hours in an incubation cabinet at approximately 20° C. and a relative atmospheric humidity of approximately 100% and afterwards for 60 hours at approximately 15° C. in a translucent incubation cabinet at a relative atmospheric humidity of approximately 100%.
The plants are placed in the greenhouse at a temperature of approximately 15° C. and a relative atmospheric humidity of approximately 80%.
The test is evaluated 21 days after the inoculation. 0% means an efficacy which corresponds to that of the untreated control, while an efficacy of 100% means that no disease is observed.

Puccinia triticina = assay: in vivo preventive Puccinia triticina test (wheat); conditions: 8 days after inoculation
Description: as §1
as §2, with “Puccinia triticina.” for “Pyrenophora teres.”
as §3

Leptosphaeria nodorum = assay: in vivo preventive Leptosphaeria nodorum test (wheat); conditions: 8 days after inoculation
Description: as §1
as §2, with “suspension of Leptosphaeria nodorum. The plants” for “suspension of Pyrenophora teres. The plants”, “of approximately 25° C. and” for “of approximately 20° C. and”
as §3

With `CC(C)c1ccc(Cl)cc1CN(C(=O)c1c(C(F)F)nn(C)c1F)C1CC1` [A5, N-(5-chloro-2-isopropylbenzyl)-N-cyclopropyl-3-(difluoromethyl)-5-fluoro-1-methyl-1H-pyrazole-4-carboxamide] the “Efficacy in % found” value (Pyrenophora teres; 25 ppm a.i.) was 71%, the “Efficacy in % found” value (Septoria tritici; Table A1, wheat, 20 ppm a.i.) was 10% and the “Efficacy in % found” value (Septoria tritici; Table A2, wheat, 15 ppm a.i.) was 30%. For the same compound, the “Efficacy in % found” value (Septoria tritici; Table A2, wheat, 30 ppm a.i.) was 50%, the “Efficacy in % found” value (Puccinia triticina; 7.5 ppm a.i.) was 30% and the “Efficacy in % found” value (Puccinia triticina; 15 ppm a.i.) was 50%. The “Efficacy in % found” value (Puccinia triticina; 30 ppm a.i.) was 70%, the “Efficacy in % found” value (Leptosphaeria nodorum; 6.25 ppm a.i.) was 17% and the “Efficacy in % found” value (Leptosphaeria nodorum; 12.5 ppm a.i.) was 33%.
`O=C(NCCc1ncc(C(F)(F)F)cc1Cl)c1ccccc1C(F)(F)F` [fluopyram] was tested, and the “Efficacy in % found” value (Pyrenophora teres; 37.5 ppm a.i.) was 43%, the “Efficacy in % found” value (Septoria tritici; Table A2, wheat, 45 ppm a.i.) was 40% and the “Efficacy in % found” value (Puccinia triticina; 45 ppm a.i.) was 0%. The “Efficacy in % found” value (Leptosphaeria nodorum; 9.375 ppm a.i.) was 0%.
`OC(Cc1ccccc1Cl)(Cn1nc[nH]c1=S)C1(Cl)CC1` (stereo not drawn) [prothioconazole] was tested, and the “Efficacy in % found” value (Pyrenophora teres; 50 ppm a.i.) was 0%, the “Efficacy in % found” value (Pyrenophora teres; 75 ppm a.i.) was 0% and the “Efficacy in % found” value (Septoria tritici; Table A1, wheat, 200 ppm a.i.) was 30%. The “Efficacy in % found” value (Septoria tritici; Table A2, wheat, 60 ppm a.i.) was 40%, the “Efficacy in % found” value (Septoria tritici; Table A2, wheat, 90 ppm a.i.) was 20% and the “Efficacy in % found” value (Puccinia triticina; 30 ppm a.i.) was 0%. For the same compound, the “Efficacy in % found” value (Puccinia triticina; 90 ppm a.i.) was 20%, the “Efficacy in % found” value (Leptosphaeria nodorum; 18.75 ppm a.i.) was 0% and the “Efficacy in % found” value (Leptosphaeria nodorum; 25 ppm a.i.) was 0%.
In the case of `CC(C)(C)C(O)(CCc1ccc(Cl)cc1)Cn1cncn1` (stereo not drawn) [tebuconazole], the “Efficacy in % found” value (Pyrenophora teres; 50 ppm a.i.) is reported as 0%, the “Efficacy in % found” value (Septoria tritici; Table A2, wheat, 60 ppm a.i.) is reported as 20% and the “Efficacy in % found” value (Puccinia triticina; 30 ppm a.i.) is reported as 30%. The “Efficacy in % found” value (Leptosphaeria nodorum; 25 ppm a.i.) was 0%.
`CON=C(C(=O)OC)c1ccccc1CON=C(C)c1cccc(C(F)(F)F)c1` [trifloxystrobin] was tested, and the “Efficacy in % found” value (Septoria tritici; Table A1, wheat, 20 ppm a.i.) was 30%.
